The source of these data is patent US10239869B2, “Sulfonamide compounds as voltage-gated sodium channel modulators” (LUPIN LIMITED, priority 2015, dated 2019).

For one data set, the target named is Nav 1.7 (Homo sapiens (Human), UniProt Q15858). Nature of the data set: Inhibition of sodium channels, Red Membrane Potential Dye FLIPR assay, veratridine depolarization. The format is cell-based. To be noted: HEK-293 cells overexpressing the channel; for IC50: read-out: Nav1.7 IC50.
The target of a further data set is Nav 1.5 (Homo sapiens (Human), UniProt Q14524). The description is as above. The format is cell-based. To be noted: HEK-293 cells overexpressing the channel; for inhibition at 10 µM: HEK-293 cells overexpressing Nav 1.5.
[1] abbreviates: read-out: Nav1.5 IC50 (bound given in μM).

Where two headings read alike, the source gives them in different places. A value given as a limit tells only on which side of the number the result lay.

As usually defined, the IC50 is the midpoint of a concentration-inhibition curve. As usually defined, the inhibition is the relative decrease from the control value, in per cent. A lower inhibition goes with a response near the control.

Chain of Nav 1.7 (Q15858 whole entry): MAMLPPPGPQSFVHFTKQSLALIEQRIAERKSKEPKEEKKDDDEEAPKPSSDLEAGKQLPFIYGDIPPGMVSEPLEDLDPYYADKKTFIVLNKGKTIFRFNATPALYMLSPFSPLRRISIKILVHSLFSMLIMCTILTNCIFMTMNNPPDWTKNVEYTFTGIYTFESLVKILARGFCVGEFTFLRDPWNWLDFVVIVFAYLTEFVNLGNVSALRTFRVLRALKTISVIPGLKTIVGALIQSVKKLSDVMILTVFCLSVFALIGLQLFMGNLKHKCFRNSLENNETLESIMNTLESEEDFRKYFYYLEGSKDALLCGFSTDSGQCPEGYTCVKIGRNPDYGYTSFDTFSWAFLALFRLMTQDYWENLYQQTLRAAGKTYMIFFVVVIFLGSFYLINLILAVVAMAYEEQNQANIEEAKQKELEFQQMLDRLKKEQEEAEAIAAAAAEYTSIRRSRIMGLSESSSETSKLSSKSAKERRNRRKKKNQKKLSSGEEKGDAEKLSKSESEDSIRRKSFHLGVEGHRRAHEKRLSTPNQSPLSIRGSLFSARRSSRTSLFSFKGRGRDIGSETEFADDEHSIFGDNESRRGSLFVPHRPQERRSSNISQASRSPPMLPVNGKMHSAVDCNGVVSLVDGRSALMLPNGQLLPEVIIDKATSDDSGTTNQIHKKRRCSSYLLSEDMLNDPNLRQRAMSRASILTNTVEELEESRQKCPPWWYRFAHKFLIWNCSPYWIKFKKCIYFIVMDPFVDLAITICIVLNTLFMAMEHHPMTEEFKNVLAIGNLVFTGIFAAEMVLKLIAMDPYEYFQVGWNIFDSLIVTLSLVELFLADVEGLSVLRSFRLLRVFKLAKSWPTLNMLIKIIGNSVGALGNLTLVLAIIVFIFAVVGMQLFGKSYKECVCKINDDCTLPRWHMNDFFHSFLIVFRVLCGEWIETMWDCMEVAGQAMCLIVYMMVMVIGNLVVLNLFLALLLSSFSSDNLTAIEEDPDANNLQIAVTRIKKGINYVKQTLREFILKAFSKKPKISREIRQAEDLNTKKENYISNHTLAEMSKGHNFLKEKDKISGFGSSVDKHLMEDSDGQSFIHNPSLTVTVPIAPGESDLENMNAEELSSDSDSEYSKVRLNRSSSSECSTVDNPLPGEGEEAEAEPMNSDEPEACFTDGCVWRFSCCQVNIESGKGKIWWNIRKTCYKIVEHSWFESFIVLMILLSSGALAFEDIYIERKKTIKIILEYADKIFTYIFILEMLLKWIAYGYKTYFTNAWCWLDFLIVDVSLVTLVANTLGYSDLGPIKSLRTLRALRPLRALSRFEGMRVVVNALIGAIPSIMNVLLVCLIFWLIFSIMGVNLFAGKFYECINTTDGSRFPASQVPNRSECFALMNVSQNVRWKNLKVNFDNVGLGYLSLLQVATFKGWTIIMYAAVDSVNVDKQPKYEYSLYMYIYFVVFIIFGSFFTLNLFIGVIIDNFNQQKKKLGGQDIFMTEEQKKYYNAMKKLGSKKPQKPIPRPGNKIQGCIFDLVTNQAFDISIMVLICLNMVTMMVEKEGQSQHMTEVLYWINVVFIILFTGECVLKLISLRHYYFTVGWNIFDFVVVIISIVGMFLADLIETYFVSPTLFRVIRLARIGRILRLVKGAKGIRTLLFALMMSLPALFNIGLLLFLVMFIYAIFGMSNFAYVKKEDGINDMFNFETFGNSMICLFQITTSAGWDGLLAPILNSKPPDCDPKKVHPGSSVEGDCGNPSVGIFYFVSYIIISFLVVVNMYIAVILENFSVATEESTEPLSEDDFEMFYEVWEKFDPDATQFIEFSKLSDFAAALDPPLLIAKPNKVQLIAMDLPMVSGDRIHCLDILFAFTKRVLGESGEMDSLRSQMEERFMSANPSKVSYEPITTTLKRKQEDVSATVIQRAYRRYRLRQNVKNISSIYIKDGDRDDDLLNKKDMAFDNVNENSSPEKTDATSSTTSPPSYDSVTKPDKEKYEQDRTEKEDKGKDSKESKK
Chain of Nav 1.5 (Q14524 whole entry): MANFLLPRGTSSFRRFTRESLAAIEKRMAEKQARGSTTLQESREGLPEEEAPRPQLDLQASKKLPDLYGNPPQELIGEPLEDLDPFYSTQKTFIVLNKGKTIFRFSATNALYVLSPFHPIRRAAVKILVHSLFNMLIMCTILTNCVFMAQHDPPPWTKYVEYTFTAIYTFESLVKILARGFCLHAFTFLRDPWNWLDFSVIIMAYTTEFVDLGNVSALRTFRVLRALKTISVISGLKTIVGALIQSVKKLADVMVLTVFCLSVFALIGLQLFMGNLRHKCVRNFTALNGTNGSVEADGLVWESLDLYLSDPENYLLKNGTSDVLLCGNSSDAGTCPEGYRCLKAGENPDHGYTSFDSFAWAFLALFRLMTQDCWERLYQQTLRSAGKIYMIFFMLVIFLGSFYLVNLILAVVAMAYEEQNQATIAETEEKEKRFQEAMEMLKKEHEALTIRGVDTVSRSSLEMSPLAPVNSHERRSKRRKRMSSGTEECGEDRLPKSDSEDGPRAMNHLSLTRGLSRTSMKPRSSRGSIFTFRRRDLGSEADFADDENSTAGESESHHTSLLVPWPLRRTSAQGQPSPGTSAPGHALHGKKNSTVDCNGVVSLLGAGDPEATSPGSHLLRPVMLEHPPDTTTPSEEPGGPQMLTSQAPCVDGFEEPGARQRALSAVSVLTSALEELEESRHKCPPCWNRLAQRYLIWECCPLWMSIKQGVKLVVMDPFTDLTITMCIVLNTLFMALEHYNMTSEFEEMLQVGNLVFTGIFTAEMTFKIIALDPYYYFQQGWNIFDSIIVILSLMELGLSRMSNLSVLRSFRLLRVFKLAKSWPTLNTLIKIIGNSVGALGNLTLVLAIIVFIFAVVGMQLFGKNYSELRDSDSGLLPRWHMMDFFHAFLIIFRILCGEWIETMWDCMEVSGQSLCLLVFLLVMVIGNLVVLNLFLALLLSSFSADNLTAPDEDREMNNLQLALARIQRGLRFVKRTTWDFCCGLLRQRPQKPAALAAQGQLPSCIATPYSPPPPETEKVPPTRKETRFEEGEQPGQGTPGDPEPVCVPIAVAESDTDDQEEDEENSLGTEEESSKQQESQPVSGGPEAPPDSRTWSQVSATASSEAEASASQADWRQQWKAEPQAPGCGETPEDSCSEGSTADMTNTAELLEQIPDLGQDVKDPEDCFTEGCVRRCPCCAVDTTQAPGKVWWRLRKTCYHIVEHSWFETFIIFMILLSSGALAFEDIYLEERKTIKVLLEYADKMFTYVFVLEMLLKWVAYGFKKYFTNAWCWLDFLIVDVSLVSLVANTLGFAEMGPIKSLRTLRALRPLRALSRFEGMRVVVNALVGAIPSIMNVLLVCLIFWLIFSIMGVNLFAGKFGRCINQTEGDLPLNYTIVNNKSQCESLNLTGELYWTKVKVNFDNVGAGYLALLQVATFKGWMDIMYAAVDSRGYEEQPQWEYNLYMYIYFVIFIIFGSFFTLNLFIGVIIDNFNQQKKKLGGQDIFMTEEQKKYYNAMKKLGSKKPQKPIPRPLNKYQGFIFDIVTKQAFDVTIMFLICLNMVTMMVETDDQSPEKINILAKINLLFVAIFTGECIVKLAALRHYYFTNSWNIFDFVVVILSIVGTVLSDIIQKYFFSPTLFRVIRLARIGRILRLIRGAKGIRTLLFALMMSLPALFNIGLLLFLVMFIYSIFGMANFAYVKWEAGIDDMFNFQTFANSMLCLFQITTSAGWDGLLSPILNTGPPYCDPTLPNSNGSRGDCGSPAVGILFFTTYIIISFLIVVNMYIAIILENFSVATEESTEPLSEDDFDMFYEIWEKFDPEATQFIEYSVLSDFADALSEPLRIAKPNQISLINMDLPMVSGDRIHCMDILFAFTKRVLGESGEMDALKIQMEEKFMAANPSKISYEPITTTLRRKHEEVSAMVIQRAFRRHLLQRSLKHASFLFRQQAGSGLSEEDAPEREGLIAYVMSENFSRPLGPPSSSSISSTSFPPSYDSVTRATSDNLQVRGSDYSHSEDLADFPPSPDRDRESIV

For the molecule `O=S(=O)(Nc1ncccn1)c1ccc2c(c1)OCC[C@@H]2c1ccc(C(F)(F)F)cc1-c1nccs1` (racemic) [Example 93, (R/S)—N-(pyrimidin-2-yl)-4-(2-(thiazol-2-yl)-4-(trifluoromethyl)phenyl)chroman-7-sulfonamide], the IC50 at Nav 1.7 was found to be 4 nM. On Nav 1.5, this molecule registered an inhibition at 10 µM of 56%.

As for `Cc1nc(-c2cc(C(F)(F)F)ccc2[C@H]2CCOc3cc(S(=O)(=O)Nc4cccnn4)ccc32)cs1` [Example 70, (S&R)-4-(2-(2-Methylthiazol-4-yl)-4-(trifluoromethyl)phenyl)-N-(pyridazin-3-yl)chroman-7-sulfonamide], the figures for the IC50 on Nav 1.7 and at Nav 1.5 (setting [1]) were 115 nM and more than 10 µM, respectively.

Take `CC(C)Oc1ccc(-c2cc(C(F)(F)F)ccc2[C@H]2CCOc3cc(S(=O)(=O)Nc4ncccn4)ccc32)cn1` [Example 98, (S&R)-4-(2-(6-isopropoxypyridin-3-yl)-4-(trifluoromethyl)phenyl)-N-(pyrimidin-2-yl)chroman-7-sulfonamide]: the IC50 at Nav 1.7 turned out to be 11 nM; on Nav 1.5 (read-out: Nav1.5 IC50) it was 0.432 µM.

Take `COCCCOc1cc(C(F)(F)F)ccc1[C@H]1CCOc2cc(S(=O)(=O)Nc3cccnn3)ccc21` (racemic) [Example 133, (R/S)-4-(2-(3-methoxypropoxy)-4-(trifluoromethyl)phenyl)-N-(pyridazin-3-yl)chroman-7-sulfonamide]: the IC50 on Nav 1.7 worked out at 128 nM. Moreover, the inhibition at 10 µM at Nav 1.5 amounted to 66%.

On to `CCCc1cc(C(F)(F)F)ccc1[C@H]1CCOc2cc(S(=O)(=O)Nc3cccc(F)n3)ccc21` [Example-245, (S&R)—N-(6-fluoropyridin-2-yl)-4-(2-propyl-4-(trifluoromethyl)phenyl)chroman-7-sulfonamide], for which the IC50 on Nav 1.7 was found to be 41 nM. The “Nav1.5 % inhibition @ 10 μM” value at Nav 1.5 is listed as 75%.

Turning to `O=S(=O)(Nc1cccc(F)n1)c1ccc2c(c1)OCC[C@@H]2c1ccc(C(F)(F)F)cc1CCC(F)F` (racemic) [Example-215, (R/S)-4-(2-(3,3-difluoropropyl)-4-(trifluoromethyl)phenyl)-N-(6-fluoropyridin-2-yl)chromane-7-sulfonamide], the figures for the IC50 on Nav 1.7 and at Nav 1.5 (read-out: Nav1.5 IC50) were 38 nM and 1.35 µM, respectively.

`O=S(=O)(Nc1cccc(F)n1)c1ccc2c(c1)OCC[C@@H]2c1ccc(C(F)(F)F)cc1CCCF` (racemic) [Example 162, (R/S)-4-(2-(3-fluoropropyl)-4-(trifluoromethyl)phenyl)-N-(6-fluoropyridin-2-yl)chroman-7-sulfonamide]: the results for the IC50 at Nav 1.7 and on Nav 1.5 (read-out: Nav1.5 IC50) were 0.7 nM and 2.64 µM, respectively.

Take `COCCCc1cc(C(F)(F)F)ccc1[C@H]1CCOc2cc(S(=O)(=O)Nc3ccncn3)ccc21` (racemic) [Example 143, (R/S)-4-(2-(3-methoxypropyl)-4-(trifluoromethyl)phenyl)-N-(pyrimidin-4-yl)chroman-7-sulfonamide]: the figures for the IC50 on Nav 1.7 and on Nav 1.5 (read-out: Nav1.5 IC50) were 16 nM and 0.534 µM, respectively.

For the molecule `CCCc1cc(C(F)(F)F)ccc1[C@@H]1CCOc2cc(S(=O)(=O)Nc3ncc(F)cn3)ccc21` [Example-240, (S&R)—N-(5-fluoropyrimidin-2-yl)-4-(2-propyl-4-(trifluoromethyl)phenyl)chroman-7-sulfonamide], the results for the IC50 at Nav 1.7 and at Nav 1.5 (setting [1]) were 2740 nM and more than 10 µM, respectively.

Turning to `O=S(=O)(Nc1ncc(F)cn1)c1ccc2c(c1)OCC[C@@H]2c1ccc(C(F)(F)F)cc1CCF` (racemic) [Example 154, (R/S)-4-(2-(2-fluoroethyl)-4-(trifluoromethyl)phenyl)-N-(5-fluoropyrimidin-2-yl)chroman-7-sulfonamide], the IC50 at Nav 1.7 was 83 nM; on Nav 1.5 (setting [1]) it was more than 10 µM.

Consider `Cn1nccc1-c1cc(C(F)(F)F)ccc1[C@@H]1CCOc2cc(S(=O)(=O)Nc3cnccn3)ccc21` [Example 11, (S&R)-4-(2-(1-Methyl-1H-pyrazol-5-yl)-4-(trifluoromethyl)phenyl)-N-(pyrazin-2-yl) chromane-7-sulfonamide], for which, at Nav 1.7, the “Nav1.7 inhibition @ 10 μM” value is reported as 96%. Also, on Nav 1.5 (setting [1]), the IC50 is more than 10 µM.

With `COCCCOc1cc(C(F)(F)F)ccc1[C@H]1CCOc2cc(S(=O)(=O)Nc3ncc(F)cn3)ccc21` (racemic) [Example 132, (R/S)—N-(5-fluoropyrimidin-2-yl)-4-(2-(3-methoxypropoxy)-4-(trifluoromethyl)phenyl)chroman-7-sulfonamide], the IC50 on Nav 1.7 was 163 nM; on Nav 1.5 (setting [1]), more than 10 µM.

As to `O=S(=O)(Nc1cccc(F)n1)c1ccc2c(c1)OCC[C@@H]2c1ccc(C(F)(F)F)cc1-n1cccn1` [Example 90, (S&R)-4-(2-(1H-pyrazol-1-yl)-4-(trifluoromethyl)phenyl)-N-(6-fluoropyridin-2-yl)chroman-7-sulfonamide], the IC50 at Nav 1.7 was 15 nM; at Nav 1.5 (setting [1]), more than 10 µM.

Regarding `O=S(=O)(Nc1cccnn1)c1ccc2c(c1)OCC[C@@H]2c1ccc(C(F)(F)F)cc1-c1nccs1` (racemic) [Example 95, (R/S)—N-(pyridazin-3-yl)-4-(2-(thiazol-2-yl)-4-(trifluoromethyl)phenyl)chroman-7-sulfonamide], the IC50 on Nav 1.7 came to 11 nM. This molecule also returned an inhibition at 10 µM at Nav 1.5 of 74%.

For `COCCOc1cc(C(F)(F)F)ccc1[C@H]1CCOc2cc(S(=O)(=O)Nc3ccncn3)ccc21` (racemic) [Example 127, (R/S)-4-(2-(2-methoxyethoxy)-4-(trifluoromethyl)phenyl)-N-(pyrimidin-4-yl)chroman-7-sulfonamide], the IC50 on Nav 1.7 was 4 nM. At Nav 1.5, the inhibition at 10 µM came to 37%.

On to `O=C1OCCN1c1cc(C(F)(F)F)ccc1[C@H]1CCOc2cc(S(=O)(=O)Nc3ncccn3)ccc21` (racemic) [Example-207, (R/S)-4-(2-(2-oxooxazolidin-3-yl)-4-(trifluoromethyl)phenyl)-N-(pyrimidin-2-yl)chroman-7-sulfonamide], for which the IC50 at Nav 1.7 was 49 nM; on Nav 1.5 (setting [1]), more than 10 µM.

Regarding `O=S(=O)(Nc1cccnn1)c1ccc2c(c1)OCC[C@@H]2c1ccc(C(F)(F)F)cc1OC1CCOCC1` [Example-175, (R&S)—N-(pyridazin-3-yl)-4-(2-((tetrahydro-2H-pyran-4-yl)oxy)-4-(trifluoromethyl)phenyl)chroman-7-sulfonamide], the IC50 is 248 nM at Nav 1.7 and 1.69 µM on Nav 1.5 (read-out: Nav1.5 IC50).

With `O=C1CCCN1c1cc(C(F)(F)F)ccc1[C@@H]1CCOc2cc(S(=O)(=O)Nc3ncc(F)cn3)ccc21` [Example 113, (S&R)—N-(5-fluoropyrimidin-2-yl)-4-(2-(2-oxopyrrolidin-1-yl)-4-(trifluoromethyl)phenyl)chroman-7-sulfonamide], the “Nav1.7 inhibition @ 10 μM” value on Nav 1.7 stood at 65%. Also, on Nav 1.5 (setting [1]), the IC50 is more than 10 µM.

On to `COCCCc1cc(C(F)(F)F)ccc1[C@H]1CCOc2cc(S(=O)(=O)Nc3ncc(F)cn3)ccc21` (racemic) [Example 142, (R/S)—N-(5-fluoropyrimidin-2-yl)-4-(2-(3-methoxypropyl)-4-(trifluoromethyl)phenyl)chroman-7-sulfonamide], for which the IC50 on Nav 1.7 was 179 nM; on Nav 1.5 (setting [1]) it was more than 10 µM.

For the molecule `O=S1(=O)CCN(c2cc(C(F)(F)F)ccc2[C@@H]2CCOc3cc(S(=O)(=O)Nc4ncccn4)ccc32)CC1` [Example-232, (S&R)-4-(2-(1,1-dioxidothiomorpholino)-4-(trifluoromethyl)phenyl)-N-(pyrimidin-2-yl)chroman-7-sulfonamide], the “Nav1.7 inhibition @ 10 μM” value on Nav 1.7 worked out at 36%. For the same molecule, on Nav 1.5 (setting [1]), the IC50 is more than 10 µM.

Take `O=C1OCCN1c1cc(C(F)(F)F)ccc1[C@H]1CCOc2cc(S(=O)(=O)Nc3ncc(F)cn3)ccc21` (racemic) [Example-208, (R/S)—N-(5-fluoropyrimidin-2-yl)-4-(2-(2-oxooxazolidin-3-yl)-4-(trifluoromethyl)phenyl)chroman-7-sulfonamide]: the IC50 at Nav 1.7 is 46 nM; on Nav 1.5 (setting [1]), more than 10 µM.

`O=S(=O)(Nc1ncccn1)c1ccc2c(c1)OCC[C@@H]2c1ccc(C(F)(F)F)cc1CCCCF` (racemic) [Example 163, (R/S)-4-(2-(4-fluorobutyl)-4-(trifluoromethyl)phenyl)-N-(pyrimidin-2-yl)chroman-7-sulfonamide]: the IC50 on Nav 1.7 stood at 42 nM; on Nav 1.5 (read-out: Nav1.5 IC50), 0.307 µM.

As to `COCCCc1cc(C(F)(F)F)ccc1[C@H]1CCOc2cc(S(=O)(=O)Nc3cccc(F)n3)ccc21` (racemic) [Example 145, (R/S)—N-(6-fluoropyridin-2-yl)-4-(2-(3-methoxypropyl)-4-(trifluoromethyl)phenyl)chroman-7-sulfonamide], the IC50 on Nav 1.7 was 19 nM; on Nav 1.5 (read-out: Nav1.5 IC50), 2.41 µM.

Consider `O=S(=O)(Nc1cccc(F)n1)c1ccc2c(c1)OCCC2c1ccc(C(F)(F)F)cc1O[C@H]1CCOC1` (stereo partly drawn) [Example-181, (R&S)—N-(6-fluoropyridin-2-yl)-4-(2-(((S)-tetrahydrofuran-3-yl)oxy)-4-(trifluoromethyl)phenyl)chroman-7-sulfonamide], for which, on Nav 1.7, the IC50 was determined as 0.9 nM. For the same molecule, the “Nav1.5 % inhibition @ 10 μM” value at Nav 1.5 was found to be 43%.

As to `O=S1(=O)CCN(c2cc(C(F)(F)F)ccc2[C@H]2CCOc3cc(S(=O)(=O)Nc4cccnn4)ccc32)CC1` (racemic) [Example-236, (R/S)-4-(2-(1,1-dioxidothiomorpholino)-4-(trifluoromethyl)phenyl)-N-(pyridazin-3-yl)chroman-7-sulfonamide], the IC50 on Nav 1.7 was 113 nM; on Nav 1.5 (setting [1]), more than 10 µM.

`Cc1ccnc(NS(=O)(=O)c2ccc3c(c2)OCC[C@H]3c2ccc(C(F)(F)F)cc2-c2ccnn2C)c1` [Example 23, (S&R)-4-(2-(1-methyl-1H-pyrazol-5-yl)-4-(trifluoromethyl)phenyl)-N-(4-methylpyridin-2-yl)chroman-7-sulfonamide]: the IC50 at Nav 1.7 is 3690 nM. Moreover, the “Nav1.5 % inhibition @ 10 μM” value at Nav 1.5 is given as 59%.

For the molecule `Cc1nc(-c2cc(C(F)(F)F)ccc2[C@H]2CCOc3cc(S(=O)(=O)Nc4cccnn4)ccc32)ccc1F` (racemic) [Example-224, (R/S)-4-(2-(5-fluoro-6-methylpyridin-2-yl)-4-(trifluoromethyl)phenyl)-N-(pyridazin-3-yl)chroman-7-sulfonamide], the IC50 on Nav 1.7 is 51 nM; on Nav 1.5 (read-out: Nav1.5 IC50) it was 2.12 µM.
